Calls of active or inactive are those of the source. The calls are words filed in the database; no cut-off is given here.

Chain of Cystic fibrosis transmembrane conductance regulator (Homo sapiens), P13569 [F508del] (P13569 as listed by the source): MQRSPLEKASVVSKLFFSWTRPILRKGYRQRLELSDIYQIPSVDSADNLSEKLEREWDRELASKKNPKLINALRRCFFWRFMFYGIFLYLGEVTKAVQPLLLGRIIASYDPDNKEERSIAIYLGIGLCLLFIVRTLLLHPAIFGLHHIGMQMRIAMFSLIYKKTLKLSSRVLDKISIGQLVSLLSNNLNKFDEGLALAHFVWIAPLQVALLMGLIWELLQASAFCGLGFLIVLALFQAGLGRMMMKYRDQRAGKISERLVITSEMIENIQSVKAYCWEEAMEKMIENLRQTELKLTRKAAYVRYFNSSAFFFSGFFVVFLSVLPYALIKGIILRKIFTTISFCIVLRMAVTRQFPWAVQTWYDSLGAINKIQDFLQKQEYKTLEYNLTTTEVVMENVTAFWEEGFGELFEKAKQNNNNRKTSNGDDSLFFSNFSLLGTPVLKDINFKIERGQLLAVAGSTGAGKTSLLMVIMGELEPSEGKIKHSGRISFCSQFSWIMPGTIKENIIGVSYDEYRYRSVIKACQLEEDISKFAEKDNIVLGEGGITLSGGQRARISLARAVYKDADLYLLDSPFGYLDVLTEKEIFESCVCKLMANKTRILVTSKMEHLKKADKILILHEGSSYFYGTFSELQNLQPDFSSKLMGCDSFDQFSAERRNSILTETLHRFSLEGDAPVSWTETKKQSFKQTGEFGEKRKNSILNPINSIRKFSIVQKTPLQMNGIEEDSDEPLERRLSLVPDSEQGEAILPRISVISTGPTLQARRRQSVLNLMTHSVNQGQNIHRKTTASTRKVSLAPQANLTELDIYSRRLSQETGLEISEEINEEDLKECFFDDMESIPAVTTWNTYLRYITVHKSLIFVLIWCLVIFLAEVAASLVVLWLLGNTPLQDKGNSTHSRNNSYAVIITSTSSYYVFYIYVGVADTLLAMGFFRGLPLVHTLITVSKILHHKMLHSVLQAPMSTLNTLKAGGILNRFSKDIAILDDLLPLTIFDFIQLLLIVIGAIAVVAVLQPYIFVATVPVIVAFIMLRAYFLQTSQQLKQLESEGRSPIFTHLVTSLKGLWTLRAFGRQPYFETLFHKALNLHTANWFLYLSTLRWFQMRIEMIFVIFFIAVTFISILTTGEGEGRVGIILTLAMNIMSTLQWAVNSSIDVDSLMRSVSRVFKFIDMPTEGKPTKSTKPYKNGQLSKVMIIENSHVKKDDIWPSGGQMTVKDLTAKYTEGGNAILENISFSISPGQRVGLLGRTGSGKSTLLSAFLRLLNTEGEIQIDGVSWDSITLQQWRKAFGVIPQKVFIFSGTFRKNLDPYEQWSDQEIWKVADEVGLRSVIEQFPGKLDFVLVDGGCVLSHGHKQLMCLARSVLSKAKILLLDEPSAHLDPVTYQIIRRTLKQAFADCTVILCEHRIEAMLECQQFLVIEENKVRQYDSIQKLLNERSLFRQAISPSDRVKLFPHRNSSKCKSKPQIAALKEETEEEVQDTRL

The subject of this assay is Cystic fibrosis transmembrane conductance regulator (Homo sapiens), P13569 [F508del]. Nature of the assay: Agonist activity at human CFTR deltaF508 mutant expressed in rat FRT cells assessed as forskolin-stimulated […] by patch-clamp method. Type of assay: functional, cell-based.
Turning to `Cc1nc(NC(=O)c2ccccc2)sc1-c1csc(Nc2cc(Cl)ccc2OCCOCCOCC(=O)O)n1`, the result was Active.

`CN(C(=O)Cc1c[nH]c2ccccc12)[C@H](C(=O)Nc1ccc(CO)cc1)c1ccccc1`: the outcome was Active.

As to `Cc1nc(NC(=O)c2ccccc2)sc1-c1csc(Nc2cc(Cl)ccc2OCCOCCOCC(=O)OCc2ccc(NC(=O)[C@H](c3ccccc3)N(C)C(=O)Cc3c[nH]c4ccccc34)cc2)n1`, the outcome was inactive.
